Among the data in patent publication US12492210B2, “Tricyclic compounds and their use” (HUTCHISON MEDIPHARMA LIMITED, priority 2019, dated 2025) are IC50 values, retold here.

The target of one assay is T1, MAPK1(ERK2) enzyme (Homo sapiens, UniProt P28482).
T1 construct: purchased Invitrogen PV3313
The experiment in a line: Z-Lyte Kinase Assay of ERK2. It counts as biochemical. To be noted: read-out: Example 18 IC50. The procedure, abridged: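 FRET-based Z-LYTE assay using ERK2 kinase with Ser/Thr3 peptide; compound tested at 0.00046–1 μM final in 2% DMSO. Kinase reaction ran 1 h at 25-30° C, followed by 1 h development. The coumarin/fluorescein emission ratio (445/520 nm) gave % phosphorylation, and IC50 was fitted from inhibition relative to uninhibited control.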

Assay [1] concerns p-RSK (Thr359) in colo205 cells. The experiment in a line: p-RSK (Thr359) Acumen Assay in Colo205. To be noted: Homo sapiens, COLO 205, 1 hour compound incubation, read-out: Example 19 IC50. It counts as cell-based. The procedure, abridged:
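Colo205 cells (4000/well, seeded overnight in 10% FBS) were exposed 1 hour at 37° C to compound added from a 3–0.001 μM dilution series in 5% DMSO. Cells were then fixed, permeabilised and immunostained for p-RSK Thr359, with PI counterstain. Acumen cytometry gave the percentage of positive cells, normalised to untreated wells and 3 uM GDC0994 wells, for the IC50 fit.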

Where only a bound is given, the exact number is not on record here.

T1 sequence (P28482 whole entry): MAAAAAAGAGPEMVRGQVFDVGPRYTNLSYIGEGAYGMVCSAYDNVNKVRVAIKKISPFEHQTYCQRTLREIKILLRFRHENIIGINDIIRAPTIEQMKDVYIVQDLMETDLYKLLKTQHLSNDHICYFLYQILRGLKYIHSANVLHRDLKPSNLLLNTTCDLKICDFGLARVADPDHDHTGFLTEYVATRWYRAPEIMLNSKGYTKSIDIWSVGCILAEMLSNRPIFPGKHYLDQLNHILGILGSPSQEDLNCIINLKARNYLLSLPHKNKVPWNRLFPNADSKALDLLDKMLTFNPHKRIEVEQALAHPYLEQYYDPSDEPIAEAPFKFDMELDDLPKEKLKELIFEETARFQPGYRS

For orientation: IC50 means the point on the concentration scale where inhibition reaches its midpoint. For `Cn1nccc1Nc1cc(-c2cc3n(c2)CC(C)(C)Cn2c-3nnc2C2(C(F)(F)F)CCC2)c(Cl)cn1` [Compound 159], the values for the IC50 (on MAPK1(ERK2) enzyme; in assay [1]) were 5 to 10 nM and no more than 100 nM, respectively.

As for `Cn1nccc1Nc1cc(-c2cc3n(c2)CCCn2c-3nnc2C2(C(F)F)CC2)c(Cl)cn1` [Compound 59], the IC50 on MAPK1(ERK2) enzyme is no more than 5 nM; in assay [1] it was no more than 100 nM.

Turning to `Cn1nccc1Nc1cc(-c2cc3n(c2)CCCn2c(Cc4c(F)cccc4Cl)nnc2-3)c(Cl)cn1` [Compound 33], the IC50 is greater than 10 nM at MAPK1(ERK2) enzyme and no more than 100 nM in assay [1].

In the case of `Cc1cnc(Nc2ccnn2C)cc1-c1cc2n(c1)[C@@H]1CC[C@@H](C1)n1c-2nnc1C(F)(F)C(F)F` [Compound 65], the IC50 at MAPK1(ERK2) enzyme was no more than 5 nM; in assay [1], no more than 100 nM.

`Cn1nccc1Nc1cc(-c2cc3n(c2)CC(C)(C)n2c-3nnc2C(F)(F)C(F)F)c(Cl)cn1` [Compound 249]: the IC50 at MAPK1(ERK2) enzyme was 5 to 10 nM; in assay [1], no more than 100 nM.

For `Cc1cnc(Nc2ccnn2C)cc1-c1cc2n(c1)CC1(Cn3c-2nnc3C(F)(F)C(F)F)CC(F)(F)C1` [Compound 168], the IC50 on MAPK1(ERK2) enzyme was 5 to 10 nM; in assay [1], greater than 100 nM.

With `Cn1nccc1Nc1cc(-c2cc3n(c2)CC2(CCC2)n2c(CCC(F)(F)F)nnc2-3)c(Cl)cn1` [Compound 253], the values for the IC50 (at MAPK1(ERK2) enzyme; in assay [1]) were no more than 5 nM and no more than 100 nM, respectively.

Regarding `Cc1cnc(Nc2ccnn2C)nc1-c1cc2n(c1)CC1(CC1)n1c-2nnc1C1(C(F)(F)F)CCC1` [Compound 250], the IC50 on MAPK1(ERK2) enzyme was no more than 5 nM; in assay [1], no more than 100 nM.

Regarding `Cc1cnc(Nc2ccnn2C)nc1-c1cc2n(c1)CC(F)(F)Cn1c-2nnc1C1(C(F)(F)F)CCC1` [Compound 264], the IC50 at MAPK1(ERK2) enzyme was no more than 5 nM; in assay [1], greater than 100 nM.

Regarding `Cc1cnc(Nc2ccnn2C)cc1-c1cc2n(c1)C[C@H](CF)n1c-2nnc1C(F)(F)c1ccc(F)c(F)c1` [Compound 181], the IC50 at MAPK1(ERK2) enzyme is 5 to 10 nM; in assay [1] it was greater than 100 nM.

Regarding `CC(C)Nc1cc(-c2cc3n(c2)CCCn2c-3nnc2C2(C(F)(F)F)CCC2)c(Cl)cn1` [Compound 230], the IC50 at MAPK1(ERK2) enzyme is 5 to 10 nM; in assay [1], greater than 100 nM.

For `Cc1cnc(Nc2nncs2)nc1-c1cc2n(c1)C[C@H](C)n1c-2nnc1C(F)(F)c1ccccc1F` [Compound 287], the IC50 on MAPK1(ERK2) enzyme is 5 to 10 nM; in assay [1], no more than 100 nM.

`Cc1cnc(Nc2ccnn2C)cc1-c1cc2n(c1)C[C@H](C)n1c-2nnc1C(F)(F)c1ccccc1Cl` [Compound 118]: the IC50 is greater than 10 nM at MAPK1(ERK2) enzyme and no more than 100 nM in assay [1].

With `C[C@H]1Cn2cc(-c3cc(Nc4ccnn4C)ncc3Cl)cc2-c2nnc(C(F)(F)c3ccccc3F)n21` [Compound 135], the values for the IC50 (at MAPK1(ERK2) enzyme; in assay [1]) were 5 to 10 nM and no more than 100 nM, respectively.

`Cc1cnc(Nc2ccnn2C)cc1-c1cc2n(c1)[C@H]1CC[C@H](C1)n1c-2nnc1C(F)(F)C(F)F` [Compound 67]: the IC50 is no more than 5 nM on MAPK1(ERK2) enzyme and no more than 100 nM in assay [1].

On to `Cc1cnc(Nc2ccnn2C)cc1-c1cc2n(c1)C[C@H](C(F)F)n1c-2nnc1C(F)(F)c1ccccc1F` [Compound 179], for which the results for the IC50 (on MAPK1(ERK2) enzyme; in assay [1]) were greater than 10 nM and no more than 100 nM, respectively.

In the case of `Cn1nccc1Nc1cc(-c2cc3n(c2)CCCn2c-3nnc2C(C)(C)C(F)(F)F)c(Cl)cn1` [Compound 22], the IC50 is no more than 5 nM on MAPK1(ERK2) enzyme and greater than 100 nM in assay [1].

On to `Cn1nccc1Nc1cc(-c2cc3n(c2)CC2(CC2)Cn2c-3nnc2C2(C(F)(F)F)CCC2)c(Cl)cn1` [Compound 268], for which the IC50 at MAPK1(ERK2) enzyme is no more than 5 nM; in assay [1], no more than 100 nM.

Regarding `Cn1nccc1Nc1cc(-c2cc3n(c2)C[C@H](CF)n2c(Cc4c(F)cccc4F)nnc2-3)c(Cl)cn1` [Compound 139], the IC50 was no more than 5 nM at MAPK1(ERK2) enzyme and no more than 100 nM in assay [1].

As to `Cc1c(-c2ccnc(Nc3ccnn3C)n2)cn2c1-c1nnc(Nc3ccccc3F)n1CCC2` [Compound 42], the IC50 on MAPK1(ERK2) enzyme was no more than 5 nM; in assay [1], greater than 100 nM.

`Cn1nccc1Nc1cc(-c2cc3n(c2)C(C(F)F)Cn2c-3nnc2C(F)(F)C(F)F)c(Cl)cn1` (stereo not drawn) [Compound 260]: the IC50 on MAPK1(ERK2) enzyme was 5 to 10 nM; in assay [1] it was greater than 100 nM.
